EC50 data for 28 compounds are collected here from patent US20230416262A1, “TRPML MODULATORS” (Casma Therapeutics, Inc., priority 2020, published 2023).

The test system of the assay is TFEB. Briefly: TFEB nuclear translocation assay. The format is cell-based. As to conditions: Homo sapiens; HeLa wt or HeLa TRPML1 KO cells, treated for 2 hrs; ratio of nuclear to ring-region TFEB intensity. The protocol: For the TFEB nuclear translocation assay, HeLa wt or HeLa TRPML1 KO cells were plated at 2700 cells/well into black-walled, 384-well Cell carrier Ultra tissue culture treated plates in complete media and incubated overnight. The next day, cells are treated for 2 hrs with compounds and incubated at 37° C. Cells were then fixed for 30 minutes at room temperature in 4% final PFA and washed five times with 90 μL PBS. PBS is aspirated from the wells and the cells are blocked with 7.5 μL blocking buffer (1.1 PBS/Odyssey block buffer containing 0.1% triton x-100 and 1% goat serum). After 30-60 minutes of block, 7.5 μL of primary anti-TFEB (rabbit) antibody is added for a final dilution of 1:200 antibody in 15 μL blocking buffer. Plates are incubated overnight at 4° C. The following day, plates are washed again into PBS, 90 μL with 5 washes, all PBS is aspirated from the wells and the cells are incubated for 1 hr in 1:1000 goat-anti rabbit Alexa 488 secondary antibody, also containing 10 μg/mL Hoechst 33342. After the 1 hr RT incubation, plates are washed a final time into PBS, sealed with foil and imaged with an automated epifluorescence microscopy (PerkinElmer Operetta CLS). Four different fields were imaged per well using ×20 magnification for DAPI and FITC filter sets. Images were quantified using PerkinElmer Harmony software, briefly: apply flatfield correction (basic/advanced) for input images. Use the Find Nuclei building block with channel set at Hoechst to find the nuclei. Use the Find cytoplasm building block with channel set to Alexa 488 to find the cytoplasm. Use select cell region with Channel set at Alexa 488 and region of interest as Nuclei and define outer border at 0 μm and inner at 45 μm to cover complete nuclei. Use select cell region with Channel set at Alexa 488 and region of interest as ring region and define outer border at −5 μm and inner at 0 μm to define a ring around the nucleus. Use the find calculate intensity parameter to calculate intensity of the nuclear region and the ring region. Define results as Number of nuclei and ratio of A/B where A is Intensity of Nuclei and B is intensity of the ring region.
On to `O=S(=O)(Cc1ccccc1)N1CC2(CCCC2)c2ccccc21` [Compound I-1, 1′-phenylmethanesulfonyl-1′,2′-dihydrospiro[cyclopentane-1,3′-indole]], for which the EC50 – broadly, the concentration giving half of the maximal effect – lay within 8.01 to 9.99 µM.

With `CC(C)C(=O)c1ccc(S(=O)(=O)N2CC3(CCCC3)c3ccccc32)cc1` [Compound I-3, 1-[4-({1′,2′-dihydrospiro[cyclopentane-1,3′-indol]-1′-yl}sulfonyl)phenyl]-2-methylpropan-1-one], the EC50 is 2.01 to 8 µM. With `CC(C)c1ccc(S(=O)(=O)N2CC3(CCCC3)c3ccccc32)cc1` [Compound I-4, 1′-[4-(propan-2-yl)benzenesulfonyl]-1′,2′-dihydrospiro[cyclopentane-1,3′-indole]], the EC50 was 8.01 to 9.99 µM.

With `CN1Cc2cc(S(=O)(=O)N3CC4(CCCC4)c4ccccc43)ccc2OC1=O` [Compound I-6, 6-({1′,2′-dihydrospiro[cyclopentane-1,3′-indol]-1′-yl}sulfonyl)-3-methyl-3,4-dihydro-2H-1,3-benzoxazin-2-one], the EC50 was not below 10 µM. The figure for `COC(CS(=O)(=O)N1CC2(CCCC2)c2ccccc21)c1ccc(F)cc1` (stereo not shown) [Compound I-7, 1′-[2-(4-fluorophenyl)-2-methoxyethanesulfonyl]-1′,2′-dihydrospiro[cyclopentane-1,3′-indole]] is not below 10 µM; for `COC1Cc2ccc(S(=O)(=O)N3CC4(CCCC4)c4ccccc43)cc2C1` (stereo not shown) [Compound I-8, 1′-[(2-methoxy-2,3-dihydro-1H-inden-5-yl)sulfonyl]-1′,2′-dihydrospiro[cyclopentane-1,3′-indole]] it is not below 10 µM; for `CS(=O)(=O)c1ccc(S(=O)(=O)N2CC3(CCCC3)c3ccccc32)cc1` [Compound I-9, 1′-(4-methanesulfonylbenzenesulfonyl)-1′,2′-dihydrospiro[cyclopentane-1,3′-indole]] it is 2.01 to 8 µM. The figure for `CS(=O)(=O)c1ccc(S(=O)(=O)N2CC3(CCCC3)c3ccccc32)cc1F` [Compound I-10, 1′-(3-fluoro-4-methanesulfonylbenzenesulfonyl)-1′,2′-dihydrospiro[cyclopentane-1,3′-indole]] is 2.01 to 8 µM; for `Cc1cc(S(=O)(=O)N2CC3(CCCC3)c3ccccc32)ccc1F` [Compound I-11, 1′-(4-fluoro-3-methylbenzenesulfonyl)-1′,2′-dihydrospiro[cyclopentane-1,3′-indole]] it is not below 10 µM.

For the compound `Cc1ccc(CS(=O)(=O)N2CC3(CCCC3)c3ccccc32)cc1` [Compound I-12, 1′-[(4-methylphenyl)methanesulfonyl]-1′,2′-dihydrospiro[cyclopentane-1,3′-indole]], the EC50 is not below 10 µM. The figure for `Cc1ccc(S(=O)(=O)N2CC3(CCCC3)c3ccccc32)cc1` [Compound I-13, 1′-(4-methylbenzenesulfonyl)-1′,2′-dihydrospiro[cyclopentane-1,3′-indole]] is not below 10 µM. The figure for `Cc1ccc(CS(=O)(=O)N2CC3(CCCC3)c3ccccc32)cc1C` [Compound I-14, 1′-[(3,4-dimethylphenyl)methanesulfonyl]-1′,2′-dihydrospiro[cyclopentane-1,3′-indole]] is 2.01 to 8 µM. Regarding `Cc1ccc(S(=O)(=O)N2CC3(CCCC3)c3ccccc32)cc1F` [Compound I-15, 1′-(3-fluoro-4-methylbenzenesulfonyl)-1′,2′-dihydrospiro[cyclopentane-1,3′-indole]], the EC50 is 8.01 to 9.99 µM. In the case of `Cc1cccc(CS(=O)(=O)N2CC3(CCCC3)c3ccccc32)c1` [Compound I-16, 1′-[(3-methylphenyl)methanesulfonyl]-1′,2′-dihydrospiro[cyclopentane-1,3′-indole]], the EC50 is not below 10 µM. The figure for `O=S(=O)(c1cnn(C2CCC2)c1)N1CC2(CCCC2)c2ccccc21` [Compound I-17, 1′-[(1-cyclobutyl-1H-pyrazol-4-yl)sulfonyl]-1′,2′-dihydrospiro[cyclopentane-1,3′-indole]] is not below 10 µM; for `O=S(=O)(c1cnn(C2CCCCC2)c1)N1CC2(CCCC2)c2ccccc21` [Compound I-18, 1′-[(1-cyclohexyl-1H-pyrazol-4-y1)sulfonyl]-1′,2′-dihydrospiro[cyclopentane-1,3′indole]] it is 2.01 to 8 µM; for `O=S(=O)(c1cnn(C2CCOCC2)c1)N1CC2(CCCC2)c2ccccc21` [Compound I-19] it is not below 10 µM. The figure for `O=S(=O)(c1cncc(C(F)F)c1)N1CC2(CCCC2)c2ccccc21` [Compound I-20, 1′-{[S-(difluoromethyl)pyridin-3-yl]sulfonyl}-1′,2′-dihydrospiro[cyclopentane-1,3′-indole]] is not below 10 µM; for `O=S(=O)(c1cc(C2OCCO2)cs1)N1CC2(CCCC2)c2ccccc21` [Compound I-21, 1′-{[4-(1,3-dioxolan-2-yl)thiophen-2-yl]sulfonyl}-1′,2′-dihydrospiro[cyclopentane-1,3′-indole]] it is not below 10 µM. As for `O=S(=O)(c1ccc(C2OCCO2)cc1F)N1CC2(CCCC2)c2ccccc21` [Compound I-22, 1′-[4-(1,3-dioxolan-2-yl)-2-fluorobenzenesulfonyl]-1′,2′-dihydrospiro[cyclopentane-1,3′-indole]], the figure is not below 10 µM; as for `O=S(=O)(c1ccc(OC(F)F)c(F)c1)N1CC2(CCCC2)c2ccccc21` [Compound I-23, 1′-[4-(difluoromethoxy)-3-fluorobenzenesulfonyl]-1′,2′-dihydrospiro[cyclopentane-1,3′-indole]], not below 10 µM.

In the case of `O=S(=O)([C@H]1C[C@@H]1c1cccc(F)c1)N1CC2(CCCC2)c2ccccc21` [Compound I-24, 1′{[(1S,2R)-2-(3-fluorophenyl)cyclopropyl]sulfonyl}-1′,2′-dihydrospiro[cyclopentane-1,3′-indole]], the EC50 is not below 10 µM. As for `O=S(=O)(Cc1cccc(F)c1)N1CC2(CCCC2)c2ccccc21` [Compound I-25, 1′-[(3-fluorophenyl)methanesulfonyl]-1′,2′-dihydrospiro[cyclopentane-1,3′-indole]], the figure is 2.01 to 8 µM; as for `O=S(=O)(c1cccc(C2CC2)c1)N1CC2(CCCC2)c2ccccc21` [Compound I-26, 1′-(3-cyclopropylbenzenesulfonyl)-1′,2′-dihydrospiro[cyclopentane-1,3′-indole]], 2.01 to 8 µM; as for `O=S(=O)(c1cccc(C2OCCO2)c1)N1CC2(CCCC2)c2ccccc21` [Compound I-27, 1′-[3-(1,3-dioxolan-2-yl)benzenesulfonyl]-1′,2′-dihydrospiro[cyclopentane-1,3′-indole]], 2.01 to 8 µM. As for `O=S(=O)(c1ccc(C(F)F)cc1)N1CC2(CCCC2)c2ccccc21` [Compound I-28, 1′-[4-(difluoromethyl)benzenesulfonyl]-1′,2′-dihydrospiro[cyclopentane-1,3′-indole]], the figure is not below 10 µM. As for `O=S(=O)(c1ccc(C2CC2)cc1)N1CC2(CCCC2)c2ccccc21` [Compound I-29, 1′-(4-cyclopropylbenzenesulfonyl)-1′,2′-dihydrospiro[cyclopentane-1,3′-indole]], the figure is 2.01 to 8 µM; as for `O=S(=O)(Cc1ccc(F)cc1)N1CC2(CCCC2)c2ccccc21` [Compound I-30, 1′-[(4-fluorophenyl)methanesulfonyl]-1′,2′-dihydrospiro[cyclopentane-1,3′-indole]], not below 10 µM.
